According to patent US10179770B2, “Quinolines derivatives as novel anticancer agents” (GENOSCIENCE PHARMA, priority 2013, dated 2019):

Legend:
BxPC-3 = experiment: Cell viability assay, pancreatic cancer cell lines; format: cell-based; details: Homo sapiens; BxPC-3 (Pancreas); 48 h
Experimental: (§1) MiaPaCa-2, Panc-1 cells were grown in Dulbecco's modified eagle's medium (DMEM) (Gibco) supplemented with 10% fetal bovine serum (FBS), while BxPC-3, Capan-1, Capan-2 cells were grown in Roswell Park Memorial Institute 1640 (RPMI 1640) (Gibco) supplemented with 10% FBS. Gemcitabine (Gemzar) was purchased from Lilly France S.A.S (Suresnes, France). (3-(4,5-dimethylthiazol-2-yl)-2,5diphenyltetrazolium bromide, MTT) was purchased from Sigma-Aldrich.
(§2) BxPC-3, MiaPaCa-2, Panc-1 cells were seeded into a 96-well plate at 10,000 10,000 15,000 cells per well respectively, while Capan-1 and Capan-2 cells at 20,000 cells per well and allowed to adhere overnight. Then the culture medium was removed and replaced with fresh media alone as control or containing various concentrations of different compounds. In dose-dependent assay, the cells were treated with compound XIX-3 at the concentration varying from 0.1 μM to 100 μM while the cells being cultured by fresh media alone were used as control. After 48 h treatment, the number of remained viable cells was determined by (3-(4,5-dimethylthiazol-2-yl)-2,5diphenyltetrazolium bromide, MTT) colorimetric assay (see Sigma Aldrich protocol and Riss T. L. et al. Cell Viability Assays in Assay Guidance Manual 2013 ppl.). All experiments were done in duplicate and repeated two independent times.

Capan-1 = experiment: Cell viability assay, pancreatic cancer cell lines; format: cell-based; details: Homo sapiens; Capan-1 (Pancreas); 48 h
Experimental: as §1, §2

Capan-2 = experiment: Cell viability assay, pancreatic cancer cell lines; format: cell-based; details: Homo sapiens; Capan-2 (Pancreas); 48 h
Experimental: as §1, §2

MIA PaCa-2 = experiment: Cell viability assay, pancreatic cancer cell lines; format: cell-based; details: Homo sapiens; MIA PaCa-2 (Pancreas); 48 h
Experimental: as §1, §2

Panc-1 = experiment: Cell viability assay, pancreatic cancer cell lines; format: cell-based; details: Homo sapiens; Panc-1 (Pancreas); 48 h
Experimental: as §1, §2

HL60 = experiment: CellTiter-Glo cell viability assay (example 57); format: cell-based; details: Homo sapiens, HL-60; HL60 (Leukemia); Cell Titer-Glo; 72 h
Experimental: (§3) The human breast cancer cell line SkBr3 and the human metastatic prostate carcinoma cell line LnCAP were cultured in Dulbecco's modified Eagle's medium (DMEM) supplemented with 10% fetal bovine serum (FBS) and 0.1% sodium pyruvate. The human myelocytic cell line U937 and NB4 were maintained in RPMI medium 1640 1× (Gibco 21875-034) supplemented with 10 % Fetal Bovine Serum (FBS, Eurobio S39130-0808) Kasumi and SKM-1 were maintained in RPMI medium 1640 1× (Gibco 21875-034) supplemented with 20 % Fetal Bovine Serum (FBS, Eurobio S39130-0808), HL60 was maintained in Iscove's modified Dulbecco's medium 1× (IMDM, Gibco 21890) supplemented with 20% Fetal Bovine Serum (FBS, Eurobio S39130-0808), cell line was maintained in MEM alpha medium (Gibco 22561-021) supplemented with 10% FBS at 37° C. with 5% CO2. Cell outgrowth was measured using the CellTiter-Glo luminescent cell viability assay as described by the manufacturer (Promega, Ref G7571 Madison, Wis., USA) using a FLUOstar optima luminometer (BMG Labtech, Ortenberg, Germany).
(§4) Briefly, for adherent cells, 10^4 cells were plated onto 96-well plates (white with clear bottom (3610, Corning Costar) in 100 μL of media per well and were allowed to grow overnight before the assay. For cells growing in suspension, 10^4 cells were plated onto 96-well plates immediately before the assay. […] Vehicle (DMSO) was used as a control, and all compounds were tested in a constant percentage of DMSO (1%). After addition of 50 μL of CellTiter GLO, luminescence was measured using a Centro luminometer (Berthold). EC50 values were determined as the dose of compound required to reduce luminescent values to 50% of the signal obtained for untreated cell cultures. All experiments were done in duplicate and repeated two independent times.

HepG2 = experiment: CellTiter-Glo cell viability assay (example 57); format: cell-based; details: Homo sapiens; HepG2 (Liver); Cell Titer-Glo; 72 h
Experimental: as §3, §4

KG-1 = experiment: CellTiter-Glo cell viability assay (example 57); format: cell-based; details: Homo sapiens; KG-1 (Leukemia); Cell Titer-Glo; 72 h
Experimental: as §3, §4

Kasumi-1 = experiment: CellTiter-Glo cell viability assay (example 57); format: cell-based; details: Homo sapiens; Kasumi-1 (Leukemia); Cell Titer-Glo; 72 h
Experimental: as §3, §4

LNCaP = experiment: CellTiter-Glo cell viability assay (example 57); format: cell-based; details: Homo sapiens; LNCaP (Prostate); Cell Titer-Glo; 72 h
Experimental: as §3, §4

MOLM-14 = experiment: CellTiter-Glo cell viability assay (example 57); format: cell-based; details: Homo sapiens; MOLM-14 (Leukemia); Cell Titer-Glo; 72 h
Experimental: as §3, §4

NB4 = experiment: CellTiter-Glo cell viability assay (example 57); format: cell-based; details: Homo sapiens, NB-4; NB4 (Leukemia); Cell Titer-Glo; 72 h
Experimental: as §3, §4

SKM-1 = experiment: CellTiter-Glo cell viability assay (example 57); format: cell-based; details: Homo sapiens; SKM-1 (Leukemia); Cell Titer-Glo; 72 h
Experimental: as §3, §4

SkBr3 = experiment: CellTiter-Glo cell viability assay (example 57); format: cell-based; details: Homo sapiens, SK-BR-3; SkBr3 (Breast); Cell Titer-Glo; 72 h
Experimental: as §3, §4

U937 = experiment: CellTiter-Glo cell viability assay (example 57); format: cell-based; details: Homo sapiens, U-937; U937 (Leukemia); Cell Titer-Glo; 72 h
Experimental: as §3, §4

HT29 = experiment: CellTiter-Glo cell viability assay (example 57); format: cell-based; details: Homo sapiens, HT-29; HT29 (Colon); Cell Titer-Glo; 72 h
B16F10 = experiment: CellTiter-Glo cell viability assay (example 57); format: cell-based, human; details: Mus musculus, B16-F10; B16F10 (Melanoma); Cell Titer-Glo; 72 h
U87-MG = experiment: CellTiter 96 Aqueous One Solution (MTS) cell proliferation assay; format: cell-based; details: Homo sapiens, U-87 MG; U87-MG (Glioma); Cell Titer 96 Aqueous One Solution; 72 h; mean of seven independent triplicate assays
Experimental: The human glioblastoma cell line U87-MG was cultured in Minimum Essential Medium (Life Invitrogen, 31095029) supplemented with 10% fetal bovine serum (GIBCO, 10500-056) and 1 % penicillin-streptomycin (GIBCO, 15140-122). Flasks and plated used for the cell culture were coated with 25 μg/mL poly-D-lysine (Sigma, P7280).
Cell outgrowth was measured using a tetrazolium compound (3-[4,5-dimethylthiazol-2-yl]-5-[3-carboxymethoxyphenyl]-2-[4-sulfophenyl]-2H tetrazolium, inner salt [MTS]) from the CellTiter 96® Aqueous One Solution Cell Proliferation Assay (Promega, Ref G3580) and according to the manufacturer procedure.
5000 cells were plated onto 96-well plates in 100 μL of media per well and were allowed to grow overnight before the assay. Compounds were added at different concentrations to each well, and cell cultures were incubated for 72 h. Control compound was the diluent used for compound resuspension (H2O). After addition of 20 μL of CellTiter 96® Aqueous One Solution, absorbance at 492 nm was measured using a microplate reader Sunrise (Tecan). EC50 values were determined as the dose of compound required to reduce […] values to 50% of the signal obtained for untreated cell cultures. […] The experimental data are analyzed using a computer program, Graphpad Prism (GraphPad Software, Inc. La Jolla, Calif.).

EC50 (BxPC-3): 53 µM | EC50 (Capan-1): 41 µM | EC50 (Capan-2): 47 µM | EC50 (MIA PaCa-2): 47 µM | EC50 (Panc-1): 57 µM | EC50 (HL60): 40 µM | EC50 (HepG2): 20 µM | EC50 (LNCaP): 25 µM | EC50 (MOLM-14): 50 µM | EC50 (SKM-1): 70 µM | EC50 (U937): 60 µM | EC50 (HT29): 20 µM | EC50 (B16F10): 20 µM | EC50 (U87-MG): 55 µM
Structure (SMILES): CCN(CCO)CCCC(C)Nc1ccnc2cc(Cl)ccc12 (stereo not drawn) [HCQ, hydroxychloroquine]
EC50 (KG-1): 60 µM | EC50 (Kasumi-1): 20 µM | EC50 (NB4): 57 µM | EC50 (SkBr3): 20 µM
